Measured values as given in patent publication US10799505B2, “Crystalline form of (S)-N-(5-((R)-2-(2,5-difluorophenyl)-pyrrolidin-1-yl)-pyrazolo[1,5-A]pyrimidin-3-yl)-3-hydroxypyrrolidine-1-carboxamide hydrogen sulfate” (Array BioPharma, Inc., priority 2014, dated 2020).

What was measured:
Assay type in all cases: physicochemical
[1] = Dynamic vapor sorption / humidity exposure (IGAsorp, 25° C.); details: at 80% RH, hydrogen sulfate
Experimental: • 1. The hygroscopicity was studied at 25° C. using an IGAsorp analyzer. • 2. About 15 mg of sample was placed in a tared mesh sample holder at an initial ambient room humidity setting of ˜35%. • 3. A total wet/dry nitrogen flow rate of 250 cc/min is used throughout the study. • 4. […] The maximum time allowed at any one humidity set point was 120 min. The sample was maintained under dry N2 after the cycle was completed. Percent weight gain was calculated based on the dry weight basis.

[2] = Stability on aluminum slide at 40° Celsius/75% RH; details: I-HS 10 days; HCl after 1 hour; HBr after 2 weeks; mesylate overnight
[3] = Dynamic vapor sorption (DVS-1 system); details: for DVS (outcome): HCl: at 50-60% RH
Experimental: For the DVS measurement a sample of crystalline form (I-HS) was cycled through changing humidity conditions to determine its hygroscopicity. The sample was analyzed using a Surface Measurement System DVS-1 Dynamic Vapor Sorption System. […] Data was collected in 1 minute intervals. Nitrogen was used as the carrier gas. […] After completion of the sorption cycle, the sample was dried using the same procedure, but all the way down to 0% RH and finally taken back to the starting point of 20% RH. The weight change during the sorption/desorption cycles were plotted, allowing for the hygroscopic nature of the sample to be determined.

[4] = Accelerated stability, open vials in LDPE bag, 40° C./75% RH, five weeks
Experimental: Upon removal from the chamber, the samples were physically characterized by appearance, KF, TGA, DSC, XRD and PLM. The samples were also analyzed by HPLC for chromatographic purity, chiral integrity and potency. Where applicable, the data presented in the stability portion also includes the original T=0 data for comparison purposes. The data can be seen in Tables 25-29 and FIGS. 40-44.

For `O=C(Nc1cnn2ccc(N3CCC[C@@H]3c3cc(F)ccc3F)nc12)N1CC[C@H](O)C1.O=S(=O)(O)O` [AM(HS)2, (S)—N-(5-((R)-2-(2,5-difluorophenyl)-pyrrolidin-1-yl)-pyrazolo[1,5-a]pyrimidin-3-yl)-3-hydroxypyrrolidine-1-carboxamide hydrogen sulfate], the “mass gained in DVS” value [1] was ~12%.

With `Cl.O=C(Nc1cnn2ccc(N3CCC[C@@H]3c3cc(F)ccc3F)nc12)N1CC[C@H](O)C1` [HCl, (S)—N-(5-((R)-2-(2,5-difluorophenyl)pyrrolidine-1-yl)pyrazolo[1,5-a]pyrimidin-3-yl)-3-hydroxypyrrolidine-1-carboxamide hydrochloride] the “Stability at 40° Celsius/75% RH (aluminum slide)” value (“Stability at 40° Celsius/75% RH” below) [2] was “form change”, the “DVS (outcome)” value [3] was “form change” and the DVS weight gain ([3]; at 50% RH) was ~1% gain at 50%.

For `Br.O=C(Nc1cnn2ccc(N3CCC[C@@H]3c3cc(F)ccc3F)nc12)N1CC[C@H](O)C1` [HBr, (S)—N-(5-((R)-2-(2,5-difluorophenyl)pyrrolidin-1-yl)pyrazolo[1,5-a]pyrimidin-3-yl)-3-hydroxypyrrolidine-1-carboxamide hydrobromide], the “Stability at 40° Celsius/75% RH” value [2] was “amorphous”, the “DVS (outcome)” value [3] was “(deliquesced)” and the DVS weight gain ([3]; at 80% RH) was ~3.9% gain at 80%. It also gave a DVS weight gain ([3]; at 90% RH) of ~25% gain at 90%.

In the case of `CS(=O)(=O)O.O=C(Nc1cnn2ccc(N3CCC[C@@H]3c3cc(F)ccc3F)nc12)N1CC[C@H](O)C1` [Mesylate, (S)—N-(5-((R)-2-(2,5-difluorophenyl)pyrrolidin-1-yl)pyrazolo[1,5-a]pyrimidin-3-yl)-3-hydroxypyrrolidine-1-carboxamide methanesulfonate], the “Stability at 40° Celsius/75% RH” value [2] is reported as “Deliquesced”, the “DVS (outcome)” value [3] is reported as “(crystalline)” and the DVS weight gain ([3]; at 80% RH) is reported as ~9% gain at 80%. For the same molecule, the DVS weight gain ([3]; at 90% RH) was ~50% gain at 90%.

In the case of `O=C(Nc1cnn2ccc(N3CCC[C@@H]3c3cc(F)ccc3F)nc12)N1CC[C@H](O)C1.O=S(=O)(O)O` [AM(HS)1, (S)—N-(5-((R)-2-(2,5-difluorophenyl)-pyrrolidin-1-yl)-pyrazolo[1,5-a]pyrimidin-3-yl)-3-hydroxypyrrolidine-1-carboxamide hydrogen sulfate], the “mass gained in DVS” value [1] is reported as “greater than 13%”, the Appearance ([4]; 40° C./75% RH, 5 wks) is reported as “Orange Powder” and the “Assay (HPLC)” value ([4]; 40° C./75% RH, 5 wks) is reported as 80.3%. For the same molecule, the “Chiral Potency (HPLC)” value ([4]; 40° C./75% RH, 5 wks) was 99.6%, the “KF (water content)” value ([4]; 40° C./75% RH, 5 wks) was 0.56 w/w % and the “Peak Area Percent, RRT 0.793” value ([4]; 40° C./75% RH, 5 wks) was 0.00. For the same molecule, the “Peak Area Percent, RRT 0.863” value ([4]; 40° C./75% RH, 5 wks) was 1.04, the “Peak Area Percent, RRT 0.981” value ([4]; 40° C./75% RH, 5 wks) was 0.12 and the “Peak Area Percent, RRT 1.000” value ([4]; 40° C./75% RH, 5 wks) was 98.83. The “Peak Area Percent, RRT 1.535” value ([4]; 40° C./75% RH, 5 wks) was 0.00, the “Total Impurities (HPLC)” value ([4]; 40° C./75% RH, 5 wks) was 1.16% and the “change of API chemical purity” value ([4]; 40° C./75% RH, five weeks) was “did not change significantly”. For the same molecule, the Appearance ([4]; time point 0 wks) was “Yellow Powder”, the “Assay (HPLC)” value ([4]; time point 0 wks) was 79.5% and the “Chiral Potency (HPLC)” value ([4]; time point 0 wks) was 99.6%. The “KF (water content)” value ([4]; time point 0 wks) was 2.00 w/w %, the “Peak Area Percent, RRT 0.793” value ([4]; time point 0 wks) was 0.00 and the “Peak Area Percent, RRT 0.863” value ([4]; time point 0 wks) was 0.98. The “Peak Area Percent, RRT 0.981” value ([4]; time point 0 wks) was 0.12, the “Peak Area Percent, RRT 1.000” value ([4]; time point 0 wks) was 98.89 and the “Peak Area Percent, RRT 1.535” value ([4]; time point 0 wks) was 0.00. For the same molecule, the “Total Impurities (HPLC)” value ([4]; time point 0 wks) was 1.10%.
